Literature values in US20230225964A1, “MICROSTIRRING DEVICES AND TECHNIQUES FOR ENHANCING BIOAVAILABILITY OF ORALLY ADMINISTERED DRUGS” (The Regents of the University of California, priority 2022, published 2023).
In brackets after ≈: the same amount, converted by molar mass.

## N[C@@H](Cc1ccc(O)c(O)c1)C(=O)O [L-Dopa, levodopa]
  solubility in water: 66 mg/mL (≈ 335 mM)
